Experiments:
[1] = molecular target: T1, mutant p53 protein in H596 (G245C) non-small-cell lung cancer cells (Homo sapiens, UniProt P04637, G245C); experiment: Immunoblot of mutant p53 protein in H596 cells; assay type: cell-based
T1 construct: host or cells: H596
Text: Human H596, A549, HCT116, MDA-MB-231, MDA-MB-468, MCF-7, DU145, MCF-10A, SW480, and SCC-4 cells were obtained from ATCC (Manassas, Va.). H1299-175H cells were kindly provided by Dr. Maria Laura Avantaggiati (Georgetown University). Cells were maintained in DMEM or RPMI-1640 medium supplemented with 10% FBS (Hyclone). […] 2,2-Diphenylethyl ITC, 4-phenoxybenzyl ITC, 4-methoxybenzyl ITC, 4-chlorobenzyl ITC, Dα-methylbenzyl ITC, trityl ITC, and 3-phenylpropyl ITC were purchased from Trans World Chemicals (Rockville, Md.). Erucin and 4-phenylbutyl ITC were from LKT Laboratories, Inc. (St. Paul, Minn.). […] The p53 DO-1 and β-actin antibodies were purchased from Santa Cruz Biotechnology (Santa Cruz, Calif.), horseradish peroxidase-labeled goat antimouse secondary antibodies were purchased from GE-Healthcare (Pittsburgh, Pa.), and Bio-Rad Protein Assay was from Bio-Rad (Hercules, Calif.).
Whole cell lysates were prepared in lysis buffer (20 mM HEPES, pH 7.4, 2 mM EGTA, 50 mM β-glycerol phosphate, 1% Triton X-100, 10% glycerol, 1 mM DTT, 1 mM PMSF, […], 1 mM Na3-VO4, and 5 mM NaF). For immunoblot analysis, equal amounts of protein were resolved on 4-12% NuPAGE BisTris gels (Invitrogen) and transferred to PVDF membranes (Millipore). The membranes were blocked with 5% milk in TBST and were then probed with p53 (DO-1) or β-actin antibody. Proteins were detected using enhanced chemiluminescence (ECL) reagents (GE Healthcare).

mutant p53 mRNA = experiment: Reverse transcription PCR of p53 mRNA in H596 cells; assay type: cell-based, Human; settings: H596, 15 μM PEITC; 2, 4, and 6 h
Protocol: Total RNA was extracted from the cells using the RNeasy kit (Qiagen). Reverse transcription PCR was performed using SuperScript One-Step RT-PCR kit (Invitrogen) according to the manufacturer's instructions. Primers for p53 were 5′-[…]-3′ (sense) and 3′-[…]-5′ (antisense). Primers for β-actin were 5′-[…]-3′ (sense) and 3′-[…]-5′ (antisense). β-Actin was used as an internal standard for RNA normalization.

[2] = tested on: mutant p53 in MDA-MB-231, MDA-MB-468, DU145, SW480, and SCC-4 cells; experiment: Immunoblot of mutant p53 in other tumor cells with mutant p53; assay type: cell-based, Human
Text: Human H596, A549, HCT116, MDA-MB-231, MDA-MB-468, MCF-7, DU145, MCF-10A, SW480, and SCC-4 cells were obtained from ATCC (Manassas, Va.). H1299-175H cells were kindly provided by Dr. Maria Laura Avantaggiati (Georgetown University). Cells were maintained in DMEM or RPMI-1640 medium supplemented with 10% FBS (Hyclone). DMSO, PEITC, BITC, SFN, AITC, NMPEA, and monochlorobimane were purchased from Sigma-Aldrich (St. Louis, Mo.). 2,2-Diphenylethyl ITC, 4-phenoxybenzyl ITC, 4-methoxybenzyl ITC, 4-chlorobenzyl ITC, Dα-methylbenzyl ITC, trityl ITC, and 3-phenylpropyl ITC were purchased from Trans World Chemicals (Rockville, Md.). Erucin and 4-phenylbutyl ITC were from LKT Laboratories, Inc. (St. Paul, Minn.). […] All the compounds are with purities ≧95% as determined by gas-liquid chromatography or HPLC. […]
Whole cell lysates were prepared in lysis buffer (20 mM HEPES, pH 7.4, 2 mM EGTA, 50 mM β-glycerol phosphate, 1% Triton X-100, 10% glycerol, 1 mM DTT, 1 mM PMSF, […], 1 mM Na3-VO4, and 5 mM NaF). […] Proteins were detected using enhanced chemiluminescence (ECL) reagents (GE Healthcare). […]

[3] = tested on: DU145 (mutant p53) xenograft tumors; experiment: Xenograft model, DU145 tumors, PEITC diet; assay type: in vivo, BALB/C nu/nu transgenic mice
Protocol: Briefly, 30 BALB/C nu/nu transgenic mice (purchased from Charles River) were randomized into two groups, and fed with powder diet AlN93 (purchased from Research Diets, Inc.) with or without addition of 5 μM PEITC compound (purchased from Sigma-Aldrich). After two weeks of feeding, two xenograft tumors each carrying […] in a volume of 100 μL were established by injection into both flanks of a mouse. Mice were continuously fed with diets with or without PEITC for additional 8 weeks before sacrifice. Diet intake and tumor volume were measured twice every week. Tumors were harvested at the end of bioassay for immunohistochemistry and immunoblot studies. […] Immunohistochemistry assays were carried out to examine the apoptotic markers, such as TUNEL, and anti-proliferation marker Ki67 in tumors from the PEITC-treated vs. untreated mice. This study provides the first in vivo evidence that mutant p53 can be depleted in tumors of mice fed PEITC-containing diet and its depletion seems to correlate with growth inhibition in the mutant p53 tumors.

[4] = molecular target: T2, p53R175H mutant protein in SK-BR-3 cells (Homo sapiens, UniProt P04637, R175H); experiment: Immunofluorescence with conformation specific antibodies (PAB240, PAB1620); assay type: cell-based; settings: SK-BR-3, PEITC 4 hrs vs DMSO
T2 construct: endogenous in cells; host or cells: SK-BR-3
Protocol: To determine if the induction of apoptosis is due to the restoration of WT conformation to the mutant p53 protein, immunoflourescence analysis was performed. SK-BR-3 cells expressing p53R175H mutant protein were treated with PEITC or DMSO as a control for 4 hrs. Cells were stained with the conformation specific antibody (PAB240) that recognizes the mutant p53 or antibody specific for the WT p53 protein (PAB1620).

## S=C=NCCc1ccccc1 [PEITC, phenethyl isothiocyanate]
[1]; H596 (G245C), 15 μM PEITC, immunoblot
  mutant p53 protein level: rapid depletion
[1]; H596, 15 μM PEITC
  earliest time at which depletion of mutant p53 occurred: 2 h
[1]; H596, 15 μM PEITC, sustained during 24 h treatment
  time at which depletion of mutant p53 peaked: 4 h
[1]; H596, 20 μM ITCs, 24 h, compared with DMSO control
  depletion of mutant p53 at equimolar concentrations: approximately the same extent
Mutant p53 mRNA
  mutant p53 mRNA levels: remained unchanged
[2]; 10 or 15 μM PEITC, time-dependent
  mutant p53 level in five cell lines: depleted mutant p53 in all five cell lines
[2]; variety of tumor cell lines
  concentration causing marked reduction in the level of mutant p53 protein: ≥ 10 µM
[3]; DU145 tumors, PEITC diet
  p53 level in tumors detected by immunoblot: moderate, yet significant, decrease
[3]; DU145 xenograft, diet with 5 μM PEITC vs diet without PEITC, 8 weeks
  tumor volume: significantly decreased
[4]
  conformation of p53R175H mutant (PAB1620 staining): induced conformation change
